{"source": "paper PMC7238409", "about": "“Interactions of TiO2 Nanoparticles with Ingredients from Modern Lifestyle Products and Their Effects on Human Skin Cells” (Chemical Research in Toxicology, 2020)"}
{"tested_on": "nNHDF cells", "experiment": "Neutral Red Uptake (NRU) assay, lysosomal integrity", "type": "cell-based, human", "conditions": "24 h, absence of TiO2 NPs (control)", "units": {"EC50": "µM"}}
{"smiles": "CCCCOC(=O)c1ccc(O)cc1", "note": "[BP, butyl parabene]", "EC50": "690 ± 420"}
{"smiles": "CCCOC(=O)c1ccc(O)cc1", "note": "[PP, propyl parabene]", "EC50": "1270 ± 340"}
{"smiles": "Nc1ccc(N)cc1", "note": "[PPD, para-phenylenediamine]", "EC50": "1360 ± 50"}
{"smiles": "CCOC(=O)c1ccc(O)cc1", "note": "[EP, ethyl parabene]", "EC50": "3540 ± 860"}
{"tested_on": "nNHDF cells", "experiment": "Neutral Red Uptake (NRU) assay, lysosomal integrity", "type": "cell-based, human", "conditions": "Homo sapiens, 24 h, absence of TiO2 NPs (control)", "units": {"EC50": "µM"}}
{"smiles": "CC(C=O)Cc1ccc(C(C)(C)C)cc1", "note": "(stereo not shown) [Lilial, 3-(4-tert-butylphenyl)-2-methylpropanal]", "EC50": "270 ± 70"}
{"tested_on": "nNHDF cells", "experiment": "Annexin V/Propidiumiodide apoptosis/necrosis assay, flow cytometry", "type": "cell-based, human", "conditions": "not given", "units": {"amount of viable cells": "%"}}
{"smiles": "COC(=O)c1ccc(O)cc1", "note": "[MP, methyl parabene]", "quadrant number lower right, PI / Annexin V plot": 6.31, "quadrant number upper left, PI / Annexin V plot": 2.69, "quadrant number upper right, PI / Annexin V plot": 1.42}
{"smiles": "CCCCOC(=O)c1ccc(O)cc1", "note": "[BP, butyl parabene]", "amount of viable cells": 79.8, "quadrant number lower left (viable cells), PI / Annexin V plot": 92.9, "quadrant number lower right, PI / Annexin V plot": 3.13, "quadrant number upper left, PI / Annexin V plot": 2.57, "quadrant number upper right, PI / Annexin V plot": 1.38}
{"smiles": "CCCOC(=O)c1ccc(O)cc1", "note": "[PP, propyl parabene]", "quadrant number lower left (viable cells), PI / Annexin V plot": 91.2, "quadrant number lower right, PI / Annexin V plot": 4.55, "quadrant number upper left, PI / Annexin V plot": 2.46, "quadrant number upper right, PI / Annexin V plot": 1.77}
{"smiles": "CCOC(=O)c1ccc(O)cc1", "note": "[EP, ethyl parabene]", "quadrant number lower left (viable cells), PI / Annexin V plot": 90.0, "quadrant number lower right, PI / Annexin V plot": 6.57, "quadrant number upper left, PI / Annexin V plot": 1.97, "quadrant number upper right, PI / Annexin V plot": 1.47}
{"smiles": "O=C1C=C(O)C(=O)c2ccccc21", "note": "[HNQ, 2-hydroxy-1,4-naphtoquinone]", "quadrant number lower left (viable cells), PI / Annexin V plot": 89.5, "quadrant number lower right, PI / Annexin V plot": 4.56, "quadrant number upper left, PI / Annexin V plot": 3.31, "quadrant number upper right, PI / Annexin V plot": 2.61}
{"tested_on": "nNHDF cells", "experiment": "Annexin V/Propidiumiodide apoptosis/necrosis assay, flow cytometry", "type": "cell-based, human", "conditions": "24 h, concentrations of Table 1, together with 100 μg/mL TiO2 NPs"}
{"smiles": "Nc1ccc(N)cc1", "note": "[PPD, para-phenylenediamine]", "PI fluorescence (necrosis) compared to the control": "significant difference in PI fluorescence"}
{"tested_on": "nNHDF cells", "experiment": "Annexin V/Propidiumiodide apoptosis/necrosis assay, flow cytometry", "type": "cell-based, human", "conditions": "human, 24 h"}
{"smiles": "CC(C=O)Cc1ccc(C(C)(C)C)cc1", "note": "(stereo not shown) [Lilial, 3-(4-tert-butylphenyl)-2-methylpropanal]", "quadrant number lower left (viable cells), PI / Annexin V plot": 94.2, "quadrant number lower right, PI / Annexin V plot": 1.60, "quadrant number upper left, PI / Annexin V plot": 3.26, "quadrant number upper right, PI / Annexin V plot": 0.94}
{"tested_on": "nNHDF cells", "experiment": "Glutathione assay (total glutathione and GSSG, Tietze method)", "type": "cell-based, human", "conditions": "4 h, concentrations of Table 1, absence of TiO2 NPs", "description": "Intracellular total and oxidized glutathione was determined by the earlier published Tietze method,[33] which was adapted to microtiter plates. Briefly, cells were lysed in 200 μL of 1% (w/v) sulfosalicylic acid (SSA), and 10 μL of the lysates were diluted with 90 μL of H2O and subsequently mixed with 100 μL of a reaction mixture containing 0.3 mM DTNB, 0.4 mM NADPH, 1 mM EDTA, and 1 U/mL glutathione reductase in 0.1 mM sodium phosphate buffer, pH = 7.5. The absorbance at 405 nm was continuously recorded over a time frame of 10 min. Glutathione concentrations were determined by comparing the increase in absorption of samples with the increase in absorption of standards with known concentrations. In order to determine the amount of oxidized glutathione (glutathione disulfide, GSSG), the samples were pretreated with 2-vinylpyridine (2-VP). The sample (cell lysate in SSA, 130 μL) was mixed with 5 μL of 2-VP, and the pH was subsequently adjusted to 6 using 0.2 M Tris-solution. Samples were incubated at room temperature for 60 min, and then 10 μL of the samples were assayed for glutathione, as described above.\nCellular protein contents were determined after lysis of the cells in 200 μL of 0.5 M NaOH according to the Lowry method[34] using bovine serum albumin as a standard."}
{"smiles": "OO", "note": "[H2O2, Hydrogen peroxide, reference compound]", "total cellular glutathione content": "lowered significantly"}
{"smiles": "CCCOC(=O)c1ccc(O)cc1", "note": "[PP, propyl parabene]", "total cellular glutathione content": "significantly lower total cellular glutathione content"}
{"tested_on": "not listed separately", "experiment": "Nanoparticle tracking analysis (NTA) of TiO2 NPs after incubation with MLP ingredients", "type": "physicochemical", "conditions": "0.1 mg/mL TiO2 NPs + 0.1 mg/mL MLP ingredient, 60 min, diluted 1:100 in water", "units": {"particle diameter of TiO2 NPs, D50": "nm", "particle diameter of TiO2 NPs, mean": "nm", "particle diameter of TiO2 NPs, mode": "nm"}}
{"smiles": "COC(=O)c1ccc(O)cc1", "note": "[MP, methyl parabene]", "# of particles (TiO2 NPs detectable)": "927 ± 146 × 10^6", "particle diameter of TiO2 NPs, D50": "122 ± 1", "particle diameter of TiO2 NPs, mean": "131 ± 2", "particle diameter of TiO2 NPs, mode": "106 ± 5"}
{"smiles": "CC(C=O)Cc1ccc(C(C)(C)C)cc1", "note": "(stereo not shown) [Lilial, 3-(4-tert-butylphenyl)-2-methylpropanal]", "# of particles (TiO2 NPs detectable)": "552 ± 248 × 10^6", "particle diameter of TiO2 NPs, D50": "127 ± 6", "particle diameter of TiO2 NPs, mean": "136 ± 5", "particle diameter of TiO2 NPs, mode": "117 ± 11"}
{"smiles": "CCCCOC(=O)c1ccc(O)cc1", "note": "[BP, butyl parabene]", "# of particles (TiO2 NPs detectable)": "748 ± 137 × 10^6", "particle diameter of TiO2 NPs, D50": "122 ± 12", "particle diameter of TiO2 NPs, mean": "136 ± 18", "particle diameter of TiO2 NPs, mode": "111 ± 19"}
{"smiles": "CCCOC(=O)c1ccc(O)cc1", "note": "[PP, propyl parabene]", "# of particles (TiO2 NPs detectable)": "612 ± 210 × 10^6", "particle diameter of TiO2 NPs, D50": "119 ± 2", "particle diameter of TiO2 NPs, mean": "126 ± 1", "particle diameter of TiO2 NPs, mode": "103 ± 5"}
{"smiles": "Nc1ccc(N)cc1", "note": "[PPD, para-phenylenediamine]", "# of particles (TiO2 NPs detectable)": "1833 ± 93 × 10^6", "particle diameter of TiO2 NPs, D50": "129 ± 17", "particle diameter of TiO2 NPs, mean": "138 ± 19", "particle diameter of TiO2 NPs, mode": "122 ± 14"}
{"smiles": "CCOC(=O)c1ccc(O)cc1", "note": "[EP, ethyl parabene]", "# of particles (TiO2 NPs detectable)": "764 ± 92 × 10^6", "particle diameter of TiO2 NPs, D50": "122 ± 2", "particle diameter of TiO2 NPs, mean": "132 ± 5", "particle diameter of TiO2 NPs, mode": "105 ± 8"}
{"smiles": "O=C1C=C(O)C(=O)c2ccccc21", "note": "[HNQ, 2-hydroxy-1,4-naphtoquinone]", "# of particles (TiO2 NPs detectable)": "498 ± 380 × 10^6", "particle diameter of TiO2 NPs, D50": "141 ± 20", "particle diameter of TiO2 NPs, mean": "154 ± 14", "particle diameter of TiO2 NPs, mode": "117 ± 18"}
{"tested_on": "nNHDF cells", "experiment": "CellTiter-Blue (CTB) assay, metabolic activity", "conditions": "Homo sapiens, 24 h, read-out: EC50, metabolic activity, control", "units": {"EC50": "µM"}}
{"smiles": "CC(C=O)Cc1ccc(C(C)(C)C)cc1", "note": "(stereo not shown) [Lilial, 3-(4-tert-butylphenyl)-2-methylpropanal]", "EC50": "230 ± 50"}
{"tested_on": "nNHDF cells", "experiment": "CellTiter-Blue (CTB) assay, metabolic activity", "conditions": "read-out: EC50 (cytotoxicity, end point not given); nNHDF cells, 24 h, discussion", "units": {"EC50": "µM"}}
{"smiles": "Nc1ccc(N)cc1", "note": "[PPD, para-phenylenediamine]", "EC50": "~1000"}
{"tested_on": "nNHDF cells", "experiment": "CellTiter-Blue (CTB) assay, metabolic activity", "conditions": "read-out: EC50, metabolic activity, control; nNHDF cells, 24 h, absence of TiO2 NPs (control)", "units": {"EC50": "µM"}}
{"smiles": "CCCOC(=O)c1ccc(O)cc1", "note": "[PP, propyl parabene]", "EC50": "1040 ± 20"}
{"smiles": "Nc1ccc(N)cc1", "note": "[PPD, para-phenylenediamine]", "EC50": "1190 ± 170"}
{"tested_on": "nNHDF cells", "experiment": "Reactive oxygen species assay (DCFDA) with side scatter signal (SSC), flow cytometry", "conditions": "concentrations of Table 1, with or without 100 μg/mL TiO2 NPs; H2O2 100 μM"}
{"smiles": "OO", "note": "[H2O2, Hydrogen peroxide, reference compound]", "DCFDA signal (ROS)": "slight but significant increase in the DCFDA signal"}
{"smiles": "Nc1ccc(N)cc1", "note": "[PPD, para-phenylenediamine]", "DCFDA signal (ROS)": "decreased the amount of detectable ROS significantly"}
{"smiles": "O=C1C=C(O)C(=O)c2ccccc21", "note": "[HNQ, 2-hydroxy-1,4-naphtoquinone]", "DCFDA signal (ROS)": "decreased the amount of detectable ROS significantly"}
